From publication PMC10176470, “Engaging a Non-catalytic Cysteine Residue Drives Potent and Selective Inhibition of Caspase-6” (Journal of the American Chemical Society, 2023)
Read-outs that look alike come from different tables or passages of the source.

Key:
Type in all cases: cell-based
[1] = molecular target: proteins of HEK293T cells transiently overexpressing caspase-6 (Homo sapiens, UniProt P61981); settings: Probe; protein YWHAG P61981
[2] = molecular target: T1, proteins of HEK293T cells transiently overexpressing caspase-6 (Homo sapiens, UniProt P04075); settings: protein ALDOA (P04075)
T1 sequence (P04075 1-364): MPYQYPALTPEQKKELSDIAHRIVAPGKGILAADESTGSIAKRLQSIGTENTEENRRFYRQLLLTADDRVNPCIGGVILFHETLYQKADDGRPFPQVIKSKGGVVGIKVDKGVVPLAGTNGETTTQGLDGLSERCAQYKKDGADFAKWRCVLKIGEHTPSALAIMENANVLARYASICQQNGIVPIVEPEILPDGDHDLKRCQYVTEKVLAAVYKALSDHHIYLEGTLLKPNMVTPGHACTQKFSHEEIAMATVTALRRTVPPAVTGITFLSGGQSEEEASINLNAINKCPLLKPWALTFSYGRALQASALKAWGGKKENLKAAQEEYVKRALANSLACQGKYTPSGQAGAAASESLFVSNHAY

[3] = molecular target: proteins of HEK293T cells transiently overexpressing caspase-6 (Homo sapiens, UniProt Q99729); settings: Probe; protein HNRNPAB Q99729
[4] = molecular target: proteins of HEK293T cells transiently overexpressing caspase-6 (Homo sapiens, UniProt P16615); settings: protein ATP2A2 (P16615)
[5] = molecular target: proteins of HEK293T cells transiently overexpressing caspase-6 (Homo sapiens, UniProt P61619); settings: exp_ref Probe; protein SEC61A1 (P61619); analysis C6
[6] = molecular target: proteins of HEK293T cells transiently overexpressing caspase-6 (Homo sapiens, UniProt Q9UQE7); settings: protein SMC3 (Q9UQE7), analysis C6
[7] = molecular target: proteins of HEK293T cells transiently overexpressing caspase-6 (Homo sapiens, UniProt Q8NBS9); settings: exp_ref Probe; protein TXNDC5 (Q8NBS9); analysis C6
[8] = molecular target: proteins of HEK293T cells transiently overexpressing caspase-6 (Homo sapiens, UniProt P25205); settings: exp_ref Probe; protein MCM3 (P25205); analysis C6
[9] = molecular target: proteins of HEK293T cells transiently overexpressing caspase-6 (Homo sapiens, UniProt P19013); settings: Probe; protein KRT4 P19013
[10] = molecular target: proteins of HEK293T cells transiently overexpressing caspase-6 (Homo sapiens, UniProt Q13428); settings: exp_ref Probe; protein TCOF1 (Q13428); analysis C6
[11] = molecular target: T2, proteins of HEK293T cells transiently overexpressing caspase-6 (Homo sapiens, UniProt P55212); settings: for enrich.exp.med: exp_ref Probe
T2 sequence (P55212 24-293): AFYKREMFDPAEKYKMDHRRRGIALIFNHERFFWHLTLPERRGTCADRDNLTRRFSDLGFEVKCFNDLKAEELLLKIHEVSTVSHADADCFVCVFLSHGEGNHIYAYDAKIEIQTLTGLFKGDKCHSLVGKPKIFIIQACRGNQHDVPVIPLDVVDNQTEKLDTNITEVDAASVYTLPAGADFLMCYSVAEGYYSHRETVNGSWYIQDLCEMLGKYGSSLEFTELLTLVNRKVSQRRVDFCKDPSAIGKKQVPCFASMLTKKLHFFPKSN

[12] = molecular target: T3, proteins of HEK293T cells transiently overexpressing caspase-6 (Homo sapiens, UniProt P30101); settings: protein PDIA3 (P30101)
T3 sequence (P30101 25-505): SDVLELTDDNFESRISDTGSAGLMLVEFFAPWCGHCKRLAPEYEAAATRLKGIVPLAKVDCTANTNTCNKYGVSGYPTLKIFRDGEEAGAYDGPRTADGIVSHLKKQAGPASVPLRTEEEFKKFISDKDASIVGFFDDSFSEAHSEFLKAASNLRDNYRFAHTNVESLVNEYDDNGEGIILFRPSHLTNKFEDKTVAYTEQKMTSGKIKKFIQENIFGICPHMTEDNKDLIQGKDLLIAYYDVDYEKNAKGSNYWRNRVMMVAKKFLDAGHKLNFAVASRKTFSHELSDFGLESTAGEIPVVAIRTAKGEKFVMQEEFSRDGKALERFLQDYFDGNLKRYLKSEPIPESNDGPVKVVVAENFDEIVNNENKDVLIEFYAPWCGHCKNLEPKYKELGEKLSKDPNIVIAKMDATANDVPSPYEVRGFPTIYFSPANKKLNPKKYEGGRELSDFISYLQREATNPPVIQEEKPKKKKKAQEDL

[13] = molecular target: proteins of HEK293T cells transiently overexpressing caspase-6 (Homo sapiens, UniProt P38606); settings: exp_ref Probe; protein ATP6V1A (P38606); analysis C6
[14] = molecular target: proteins of HEK293T cells transiently overexpressing caspase-6 (Homo sapiens, UniProt Q9Y6C9); settings: protein MTCH2 (Q9Y6C9); exp_ref Probe; analysis C6
[15] = molecular target: proteins of HEK293T cells transiently overexpressing caspase-6 (Homo sapiens, UniProt P11388); settings: protein TOP2A (P11388)
[16] = molecular target: proteins of HEK293T cells transiently overexpressing caspase-6 (Homo sapiens, UniProt Q02790); settings: exp_ref Probe; protein FKBP4 (Q02790); analysis C6
[17] = protein CASP6SMALL (P55212), Expt Probe, analysis C6

Sequence of proteins of HEK293T cells transiently overexpressing caspase-6 (Homo sapiens, UniProt P16615) (P16615 whole entry): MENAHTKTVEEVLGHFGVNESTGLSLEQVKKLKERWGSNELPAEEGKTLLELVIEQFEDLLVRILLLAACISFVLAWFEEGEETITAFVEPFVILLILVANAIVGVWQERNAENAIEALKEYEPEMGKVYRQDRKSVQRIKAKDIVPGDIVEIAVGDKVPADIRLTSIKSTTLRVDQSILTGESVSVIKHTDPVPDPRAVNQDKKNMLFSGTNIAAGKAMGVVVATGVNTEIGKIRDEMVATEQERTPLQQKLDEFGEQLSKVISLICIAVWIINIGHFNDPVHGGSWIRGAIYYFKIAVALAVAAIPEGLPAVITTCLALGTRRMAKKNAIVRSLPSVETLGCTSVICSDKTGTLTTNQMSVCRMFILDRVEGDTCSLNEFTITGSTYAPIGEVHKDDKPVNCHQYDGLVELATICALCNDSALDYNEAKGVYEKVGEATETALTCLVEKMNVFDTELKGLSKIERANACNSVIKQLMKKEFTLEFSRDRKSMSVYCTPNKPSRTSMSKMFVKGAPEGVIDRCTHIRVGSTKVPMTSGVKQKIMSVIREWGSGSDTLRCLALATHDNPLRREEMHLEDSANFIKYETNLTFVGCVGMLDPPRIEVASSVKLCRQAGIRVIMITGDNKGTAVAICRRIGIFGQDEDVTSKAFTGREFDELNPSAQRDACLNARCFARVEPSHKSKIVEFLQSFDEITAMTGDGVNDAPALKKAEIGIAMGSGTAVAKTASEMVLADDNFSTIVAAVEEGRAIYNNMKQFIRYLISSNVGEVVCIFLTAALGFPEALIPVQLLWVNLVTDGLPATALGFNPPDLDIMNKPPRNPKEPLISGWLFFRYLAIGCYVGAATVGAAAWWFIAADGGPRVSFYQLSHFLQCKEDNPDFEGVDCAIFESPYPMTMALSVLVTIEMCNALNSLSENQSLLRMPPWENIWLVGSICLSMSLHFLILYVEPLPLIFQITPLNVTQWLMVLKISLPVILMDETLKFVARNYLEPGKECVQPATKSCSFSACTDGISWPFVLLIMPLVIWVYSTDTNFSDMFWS
Sequence of proteins of HEK293T cells transiently overexpressing caspase-6 (Homo sapiens, UniProt Q9UQE7) (Q9UQE7 whole entry): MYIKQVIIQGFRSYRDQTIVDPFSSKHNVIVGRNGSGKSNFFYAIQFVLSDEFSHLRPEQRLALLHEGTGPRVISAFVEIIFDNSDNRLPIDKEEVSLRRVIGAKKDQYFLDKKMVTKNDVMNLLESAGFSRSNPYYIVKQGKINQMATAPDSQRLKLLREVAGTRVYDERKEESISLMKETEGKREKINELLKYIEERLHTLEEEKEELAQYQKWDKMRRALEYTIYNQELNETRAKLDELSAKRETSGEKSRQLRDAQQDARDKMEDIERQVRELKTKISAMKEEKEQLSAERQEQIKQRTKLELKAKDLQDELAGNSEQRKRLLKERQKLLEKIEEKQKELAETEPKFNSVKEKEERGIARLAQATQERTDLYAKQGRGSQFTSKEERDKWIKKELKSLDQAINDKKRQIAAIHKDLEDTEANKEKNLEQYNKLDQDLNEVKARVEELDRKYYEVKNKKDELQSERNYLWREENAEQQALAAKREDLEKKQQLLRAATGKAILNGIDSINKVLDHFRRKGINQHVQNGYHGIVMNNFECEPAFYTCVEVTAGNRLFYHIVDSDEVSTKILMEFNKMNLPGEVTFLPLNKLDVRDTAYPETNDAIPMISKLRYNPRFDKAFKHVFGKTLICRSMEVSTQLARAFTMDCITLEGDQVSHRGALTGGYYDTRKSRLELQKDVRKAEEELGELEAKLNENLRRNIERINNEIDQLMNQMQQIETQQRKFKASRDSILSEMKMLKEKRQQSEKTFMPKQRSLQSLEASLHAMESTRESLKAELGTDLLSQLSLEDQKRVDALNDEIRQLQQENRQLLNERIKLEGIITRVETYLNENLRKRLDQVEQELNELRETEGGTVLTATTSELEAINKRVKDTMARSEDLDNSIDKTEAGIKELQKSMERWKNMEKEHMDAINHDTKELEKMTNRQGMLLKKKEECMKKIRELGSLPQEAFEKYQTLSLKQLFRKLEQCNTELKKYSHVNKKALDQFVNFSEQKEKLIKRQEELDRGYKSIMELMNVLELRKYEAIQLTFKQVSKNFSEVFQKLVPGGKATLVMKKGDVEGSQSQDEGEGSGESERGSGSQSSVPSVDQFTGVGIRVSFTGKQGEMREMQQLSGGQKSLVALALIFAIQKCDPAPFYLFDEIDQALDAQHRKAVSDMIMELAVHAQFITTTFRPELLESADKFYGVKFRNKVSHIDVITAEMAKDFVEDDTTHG
Sequence of proteins of HEK293T cells transiently overexpressing caspase-6 (Homo sapiens, UniProt P11388) (P11388 whole entry): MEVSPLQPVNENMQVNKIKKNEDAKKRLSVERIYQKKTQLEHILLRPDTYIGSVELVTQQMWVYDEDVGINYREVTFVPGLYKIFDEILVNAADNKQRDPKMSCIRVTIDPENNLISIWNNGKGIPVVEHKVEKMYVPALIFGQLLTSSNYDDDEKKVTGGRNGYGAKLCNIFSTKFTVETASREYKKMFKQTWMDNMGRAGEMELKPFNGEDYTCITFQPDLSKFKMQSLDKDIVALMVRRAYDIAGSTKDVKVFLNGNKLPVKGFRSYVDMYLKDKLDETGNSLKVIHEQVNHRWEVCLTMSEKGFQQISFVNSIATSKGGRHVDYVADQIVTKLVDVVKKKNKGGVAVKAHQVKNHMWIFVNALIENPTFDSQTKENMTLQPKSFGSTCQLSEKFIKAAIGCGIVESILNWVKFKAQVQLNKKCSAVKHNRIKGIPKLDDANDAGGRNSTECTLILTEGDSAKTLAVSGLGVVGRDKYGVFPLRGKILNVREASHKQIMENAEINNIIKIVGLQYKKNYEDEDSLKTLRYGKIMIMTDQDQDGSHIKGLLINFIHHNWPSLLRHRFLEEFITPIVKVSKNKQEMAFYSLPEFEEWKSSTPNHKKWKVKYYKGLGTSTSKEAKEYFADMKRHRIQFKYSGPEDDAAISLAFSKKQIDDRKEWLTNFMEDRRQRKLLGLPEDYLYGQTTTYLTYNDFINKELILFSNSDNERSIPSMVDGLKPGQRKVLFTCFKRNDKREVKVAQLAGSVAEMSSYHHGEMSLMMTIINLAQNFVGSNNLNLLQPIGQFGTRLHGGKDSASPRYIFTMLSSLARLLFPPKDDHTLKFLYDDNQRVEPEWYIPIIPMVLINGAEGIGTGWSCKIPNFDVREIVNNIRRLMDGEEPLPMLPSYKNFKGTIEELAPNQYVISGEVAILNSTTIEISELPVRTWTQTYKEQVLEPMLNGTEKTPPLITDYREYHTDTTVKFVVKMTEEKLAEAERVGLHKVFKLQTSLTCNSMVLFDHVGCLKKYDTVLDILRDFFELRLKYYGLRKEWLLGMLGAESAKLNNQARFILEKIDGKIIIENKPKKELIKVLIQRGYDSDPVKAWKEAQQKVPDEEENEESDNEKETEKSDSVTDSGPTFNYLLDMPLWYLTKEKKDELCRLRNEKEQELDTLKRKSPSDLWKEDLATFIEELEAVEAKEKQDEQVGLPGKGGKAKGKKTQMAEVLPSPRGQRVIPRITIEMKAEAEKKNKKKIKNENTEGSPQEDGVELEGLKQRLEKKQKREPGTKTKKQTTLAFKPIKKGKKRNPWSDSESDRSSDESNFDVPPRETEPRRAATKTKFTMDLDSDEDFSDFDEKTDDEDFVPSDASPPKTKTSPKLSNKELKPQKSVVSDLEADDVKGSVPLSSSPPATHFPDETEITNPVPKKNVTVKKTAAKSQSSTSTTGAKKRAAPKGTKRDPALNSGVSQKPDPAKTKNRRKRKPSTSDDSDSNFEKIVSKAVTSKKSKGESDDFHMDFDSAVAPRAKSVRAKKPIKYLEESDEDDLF
Sequence of proteins of HEK293T cells transiently overexpressing caspase-6 (Homo sapiens, UniProt P25205) (P25205 whole entry): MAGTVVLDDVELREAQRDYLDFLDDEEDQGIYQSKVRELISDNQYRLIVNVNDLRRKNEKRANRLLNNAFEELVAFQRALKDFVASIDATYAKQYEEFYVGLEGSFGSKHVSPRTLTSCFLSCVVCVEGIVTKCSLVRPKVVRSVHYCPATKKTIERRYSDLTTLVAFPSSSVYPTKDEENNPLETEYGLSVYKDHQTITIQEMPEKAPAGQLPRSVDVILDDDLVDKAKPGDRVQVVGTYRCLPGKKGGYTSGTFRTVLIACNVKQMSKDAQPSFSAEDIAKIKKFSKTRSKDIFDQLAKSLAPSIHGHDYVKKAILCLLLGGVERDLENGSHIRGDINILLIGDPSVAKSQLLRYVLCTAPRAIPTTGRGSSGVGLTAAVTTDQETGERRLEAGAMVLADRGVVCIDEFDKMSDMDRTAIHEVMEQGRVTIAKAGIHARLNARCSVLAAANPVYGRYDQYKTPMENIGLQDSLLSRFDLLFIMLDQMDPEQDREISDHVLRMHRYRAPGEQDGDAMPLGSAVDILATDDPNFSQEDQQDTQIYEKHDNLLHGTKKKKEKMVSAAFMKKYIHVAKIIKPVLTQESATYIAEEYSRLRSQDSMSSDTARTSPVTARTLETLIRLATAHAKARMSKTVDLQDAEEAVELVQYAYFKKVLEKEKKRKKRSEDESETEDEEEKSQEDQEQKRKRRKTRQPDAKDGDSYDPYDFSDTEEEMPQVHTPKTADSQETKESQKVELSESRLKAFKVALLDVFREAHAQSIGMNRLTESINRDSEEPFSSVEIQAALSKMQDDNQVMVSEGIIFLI
Sequence of proteins of HEK293T cells transiently overexpressing caspase-6 (Homo sapiens, UniProt P61619) (P61619 whole entry): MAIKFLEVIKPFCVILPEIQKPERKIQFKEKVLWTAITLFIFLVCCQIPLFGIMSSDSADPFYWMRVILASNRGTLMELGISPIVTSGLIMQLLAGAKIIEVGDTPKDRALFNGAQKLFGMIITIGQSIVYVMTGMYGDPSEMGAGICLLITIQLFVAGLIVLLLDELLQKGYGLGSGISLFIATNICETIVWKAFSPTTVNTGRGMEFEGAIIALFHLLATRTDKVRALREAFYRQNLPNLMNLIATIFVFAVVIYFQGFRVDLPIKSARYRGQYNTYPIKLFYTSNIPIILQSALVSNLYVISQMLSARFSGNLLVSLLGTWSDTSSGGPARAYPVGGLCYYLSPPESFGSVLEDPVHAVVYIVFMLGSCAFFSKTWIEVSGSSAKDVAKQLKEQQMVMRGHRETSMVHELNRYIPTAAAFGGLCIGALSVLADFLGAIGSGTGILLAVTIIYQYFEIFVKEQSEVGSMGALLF

## C#CCOc1ccc([C@@H]2C[C@@H](C(=O)Nc3ccc(OC(F)(F)F)cc3)CN(S(=O)(=O)C=C)C2)cc1 (relative stereo) [13-t]
[1]
  enrich.exp.med: -1.712
[2]; exp_ref Probe, analysis C6
  enrich.exp.med: 0.8107
[2]
  enrich.exp.med.lin: 1.754
  enrich.exp.med.log2: 0.8107
[3]
  enrich.exp.med: -0.4603
[4]
  enrich.exp.med.lin: 2.861
  enrich.exp.med.log2: 1.516
[4]; exp_ref Probe, analysis C6
  enrich.exp.med: 1.516
[5]
  enrich.exp.med: 0.5807
[6]; Expt Probe
  enrich.exp.med.lin: 14.5893
  enrich.exp.med.log2: 3.867
[6]; exp_ref Probe
  enrich.exp.med: 3.867
[7]
  enrich.exp.med: 0.5284
[8]
  enrich.exp.med: 0.2109
[9]
  enrich.exp.med: -4.171
[10]
  enrich.exp.med: 0.9444
[11]; protein CASP6LARGE (P55212), analysis C6
  enrich.exp.med: 0.6468
[11]; protein CASP6LARGE (P55212)
  enrich.exp.med.lin: 1.566
  enrich.exp.med.log2: 0.6468
[11]; protein CASP6SMALL (P55212)
  enrich.exp.med.lin: 9.435
  enrich.exp.med.log2: 3.238
[11]; [17]
  enrich.exp.med.lin: 9.435
  enrich.exp.med.log2: 3.238
[11]; protein CASP6SMALL (P55212), analysis C6
  enrich.exp.med: 3.238
[12]; exp_ref Probe, analysis C6
  enrich.exp.med: 0.6793
[12]
  enrich.exp.med.lin: 1.601
  enrich.exp.med.log2: 0.6793
[13]
  enrich.exp.med: 0.7344
[14]
  enrich.exp.med: 1.32
[15]
  enrich.exp.med.lin: 3.929
  enrich.exp.med.log2: 1.974
[15]; exp_ref Probe, analysis C6
  enrich.exp.med: 1.974
[16]
  enrich.exp.med: 0.8165
